Source: US20240390369A1, “METHODS FOR DETERMINING RESPONSIVENESS TO TYK2 INHIBITORS” (Bristol-Myers Squibb Company, priority 2021, published 2024)

How the values were obtained:
[1] = system: β-defensin 2 (BD2); test: Serum β-defensin 2 level over sixteen weeks of treatment (ELISA); type: in vivo, human; conditions: 12 mg QD treatment arm; sixteen-week treatment period (FIG. 43B)
Protocol: Levels of proteins in serum were measured at baseline and at various points during sixteen weeks of treatment with deucravacitinib. […] Levels of BD2 in serum samples were measured by ELISA; levels of IL-19 and IL-17A in serum were each measured by ultrasensitive Simoa technology.

[2] = system: patients with psoriatic arthritis; test: Phase 2 trial in psoriatic arthritis: ACR20 response at week 16; type: in vivo, human

With `[2H]C([2H])([2H])NC(=O)c1nnc(NC(=O)C2CC2)cc1Nc1cccc(-c2ncn(C)n2)c1OC` [deucravacitinib, 6-(cyclopropanecarboxamido)-4-((2-methoxy-3-(1-methyl-1H-1,2,4-triazol-3-yl)phenyl)amino)-N-(methyl-d3)pyridazine-3-carboxamide] the “Change from baseline in serum BD2 level, PASI75 responders versus non-responders” value [1] was “greater reductions in BD2 serum level were observed over time in the PASI75 responder group compared with the non-responder group”, the “Interaction Term for ACR20 response (ratio of odds ratios)” value ([2]; adjusted for baseline DAS28, 12 mg QD vs placebo: IL-19-high versus IL-19-low) was 7.37 and the “Odds Ratio for ACR20 response” value ([2]; adjusted for baseline DAS28, All patients, 6 mg QD vs placebo) was 2.44. The “Odds Ratio for ACR20 response” value ([2]; adjusted for baseline DAS28, BD2-high, 12 mg QD vs placebo) was 7.33 and the “Odds Ratio for ACR20 response” value ([2]; adjusted for baseline DAS28, IL-17A-low, 12 mg QD vs placebo) was 2.16.
